Reference: article PMC3856889 (Molecular cancer therapeutics, 2013)
Where “and” joins values, the source holds several entries; their conditions need not be identical. Identical values can stand only once.

Legend:
C57 BL/6 mice = experiment: Maximum tolerable dose, i.p. injection; assay type: in vivo, mouse; details: dose level causing no deaths, chloride salt
[1] = system: acetyl cholinesterase (AChE); details: in vitro and in vivo; cited from earlier work
[2] = system: supercoiled plasmid pUC18 DNA; details: cited from earlier work
[3] = cited from earlier work; for potential of tatpp-based reductive processes: vs. NHE at pH 7.0
mice = details: cited from earlier work
H358 = experiment: MTT cytotoxicity assay, H358 NSCLC cells; assay type: cell-based, human; details: read-out: IC50 (µM) H358, 96-h incubation
H226 = experiment: MTT cytotoxicity assay, H226 NSCLC cells; assay type: cell-based, human; details: read-out: IC50 (µM) H226, 96-h incubation
[4] = radiolabeled complex, in vivo; cited from earlier work
H358 cells = experiment: Non-hypoxic/hypoxic cytotoxicity, cell count with Trypan blue; assay type: cell-based, human; details: hypoxic 1 % O2 relative to normoxic, 24 h, Fig. 2A
[5] = Water solubility of the salts; details: chloride salts
HUVSMC [6] = experiment: Cytotoxicity towards normal HUVSMC cells; assay type: cell-based, human; details: read-out: IC50 for normal HUVSMC cells
HUVEC [7] = experiment: Cytotoxicity towards normal HUVEC cells; assay type: cell-based, human
NCI-60 panel = experiment: NCI-60 cell line one-dose screen; assay type: cell-based; details: single dose 10 µM
[8] = system: supercoiled plasmid pUC18 DNA; experiment: DNA cleavage assay; assay type: biochemical
HUVEC [9] = experiment: Apoptosis, caspase-cleavage and TUNEL, HUVEC; assay type: cell-based, human; details: 10 µM
[10] = system: pAKT, pEGFR, PI3K, pRb, CDK4, cyclinB1, bcl2, Bax in H358 cells; experiment: Western blot of apoptotic, proliferative and tumor suppressor proteins; assay type: cell-based, human; details: H358, 10 µM, 24 h, Fig. 2D
HUVSMC [11] = experiment: Apoptosis, HUVSMC; assay type: cell-based, human; details: similar treatment

Compound	Maximum Tolerable Dose MTD (mg complex /kg mouse) (C57 BL/6 mice)	Maximum Tolerable Dose MTD µmol complex /kg mouse (C57 BL/6 mice)	IC50 (H358)	IC50 (H226)	further results
[Ru+2].c1cnc2c(c1)ccc1cccnc12.c1cnc2c(c1)ccc1cccnc12.c1cnc2c(c1)ccc1cccnc12 [1^2+, rac-[Ru(phen)3]^2+]	6.6 mg complex /kg mouse	9.1 µmol complex /kg mouse	90 µM and 86.7 µM	90 µM and 92.8 µM	inhibition of acetyl cholinesterase (AChE) [1]: competitive inhibitor; DNA cleavage activity upon in situ reduction by glutathione [2]: nor do they exhibit any DNA cleavage activity; reduction potential required [3]: ≤ −0.70 V; minimum lethal dose (mice; iodo salt, mice, i.p. injection): 12 µmol/kg; toxicity when administered orally (mice; oral): non-toxic
[106Ru+2].c1cnc2c(c1)ccc1cccnc12.c1cnc2c(c1)ccc1cccnc12.c1cnc2c(c1)ccc1cccnc12 [[^106Ru(phen)3]^2+]	–	–	–	–	recovery in the urine [4]: nearly all the complex was recovered in the urine
[Ru+2].c1ccc(-c2ccccn2)nc1.c1ccc(-c2ccccn2)nc1.c1ccc(-c2ccccn2)nc1 [rac-[Ru(bpy)3]^2+, reference compound]	–	–	209 ± 16 µM	198 ± 15 µM	–
[Ru+2].c1cnc2c(c1)ccc1cccnc12.c1cnc2c(c1)ccc1cccnc12.c1cnc2c(c1)ccc1cccnc12 [Δ-1^2+, Δ-[Ru(phen)3]^2+]	–	–	64.8 ± 4.2 µM	93.6 ± 6.3 µM	–
[Ru+2].c1cnc2c(c1)ccc1cccnc12.c1cnc2c(c1)ccc1cccnc12.c1cnc2c(c1)ccc1cccnc12 [Λ-1^2+, Λ-[Ru(phen)3]^2+]	–	–	61.4 ± 4.7 µM	116 ± 6.9 µM	–
[Ru(phen)2(dppz)]^2+	–	–	–	–	potentiation of cytotoxicity under hypoxic conditions (H358 cells): neither of which showed significant potentiation
cis-Pt(NH3)2Cl2 [cisplatin, reference compound]	–	–	–	–	potentiation of cytotoxicity under hypoxic conditions (H358 cells): neither of which showed significant potentiation; LD50 (mice; murine acute toxicity): ~ 57 µmol/kg
mix-[(phen)2Ru(tatpp)Ru(phen)2]^4+ [4^4+]	66 mg complex /kg mouse	43 µmol complex /kg mouse	15.2 ± 1.8 µM	16.2 ± 1.9 µM	DNA cleavage activity upon in situ reduction by glutathione [2]: effective DNA cleaving agent; potential of tatpp-based reductive processes [3]: > −0.25 V; water solubility [5]: water soluble
mix-[(phen)2Ru(tpphz)Ru(phen)2]^4+ [2^4+]	3.3 mg complex /kg mouse	2.5 µmol complex /kg mouse	41.8 ± 2.7 µM	51.1 ± 3.4 µM	DNA cleavage activity upon in situ reduction by glutathione [2]: nor do they exhibit any DNA cleavage activity; reduction potential required [3]: ≤ −0.70 V; water solubility [5]: water soluble
rac-[(phen)2Ru(tatpp)]^2+ [3^2+]	67 mg complex /kg mouse	65 µmol complex /kg mouse	13.2 ± 1.8 µM	12.5 ± 1.9 µM	potential of tatpp-based reductive processes [3]: > −0.25 V; water solubility [5]: water soluble
ΔΔ-[(phen)2Ru(tatpp)Ru(phen)2]^4+ [ΔΔ-4^4+]	100 mg complex /kg mouse	64 µmol complex /kg mouse	9.5 ± 1.2 µM	9.3 ± 0.9 µM	IC50 (HUVSMC [6]): ~100 µM; difference in cytotoxicity, malignant vs normal cells (HUVEC [7]; malignant cell lines vs HUVEC and HUVSMC): ~10 fold; IC50 (HUVEC [7]; read-out: IC50 for normal HUVEC cells): ~100 µM; mean growth percentage, whole panel (NCI-60 panel): 80%; DNA cleavage, dependence on GSH ([8]; presence or absence of GSH, Fig. 3A): only show DNA cleavage when GSH is present; DNA cleavage when O2 is absent ([8]; with GSH, anaerobic vs aerobic): appreciably enhanced; apoptosis in HUVEC (HUVEC [9]): did not show apoptosis; Bax level [10]: significantly increased; kinase signaling (pAKT, pEGFR, PI3K, pRb, CDK4, cyclinB1, bcl2) [10]: generalized decrease in kinase signaling; apoptosis in HUVSMC (HUVSMC [11]): did not show apoptosis
ΔΛ-[(phen)2Ru(tatpp)Ru(phen)2]^4+ [ΔΛ-4^4+]	66 mg complex /kg mouse	43 µmol complex /kg mouse	15.3 ± 1.5 µM	18.6 ± 1.5 µM	–
Λ-[(phen)2Ru(tatpp)]^2+ [Λ-3^2+]	–	–	13.8 ± 1.5 µM	13 ± 2 µM	–
ΛΛ-[(phen)2Ru(tatpp)Ru(phen)2]^4+ [ΛΛ-4^4+]	66 mg complex /kg mouse	43 µmol complex /kg mouse	16.7 ± 1 µM	17.3 ± 1.5 µM	–
